Data from ChEMBL document CHEMBL4043190 (Bioorg Med Chem Lett, 2017).

Assays:
[1] = biological target: T1, Cyclin-dependent kinase 9 (Homo sapiens, UniProt P50750); conditions: 70 nM
Plasma [2] = assay: Unbound drug concentration in IL-23/IL-1beta induced C57BL/6J mouse plasma at 30 mg/kg, po preincubated for 30 mins followed by cytokine addition measured after 3.5 hrs post dose; type: ADME, organism-based; conditions: in vivo
Plasma [3] = assay: Unbound drug concentration in IL-23/IL-1beta induced C57BL/6J mouse plasma at 70 mg/kg, po preincubated for 30 mins followed by cytokine addition measured after 3.5 hrs post dose; type: ADME, organism-based; conditions: in vivo
Mus musculus [4] = assay: Toxicity in IMQ-induced BALB/c mouse model assessed as reduction in platelet levels at 30 mg/kg, po bid for 5 days; type: organism-based; design: scale not given: the % may be the effect or the level left; conditions: in vivo, 120 h
Plasma [5] = assay: Unbound drug concentration in IL-23/IL-1beta induced C57BL/6J mouse plasma at 100 mg/kg, po preincubated for 30 mins followed by cytokine addition measured after 3.5 hrs post dose; type: ADME, organism-based; conditions: in vivo
Mus musculus [6] = assay: Antiinflammatory activity in IMQ-induced BALB/c mouse psoriasis model assessed as reduction in ear thickness at 100 mg/kg, po bid for 5 days meausred on day 6; type: functional; design: scale not given: the % may be the effect or the level left
[7] = biological target: Tyrosine-protein kinase JAK2 (Homo sapiens, UniProt O60674); assay: Inhibition of JAK2 (unknown origin) assessed as reduction in EPO-mediated STAT5 phosphorylation by cell based readout assay
Mus musculus [8] = assay: Antiinflammatory activity in IMQ-induced BALB/c mouse psoriasis model assessed as reduction in ear thickness at 30 mg/kg, po bid for 5 days meausred on day 6; type: functional; design: scale not given: the % may be the effect or the level left
Mus musculus [9] = assay: Toxicity in IMQ-induced BALB/c mouse model assessed as reduction in platelet levels at 100 mg/kg, po bid for 5 days; type: organism-based; design: scale not given: the % may be the effect or the level left; conditions: in vivo, 120 h
Homo sapiens = organism: Homo sapiens; assay: Selectivity ratio of EC50 for JAK2 (unknown origin) assessed as EPO-induced STAT5 phosphorylation to EC50 for TYK2 (unknown origin) assessed as IL-23-induced STAT3 phosphorylation
[10] = biological target: Non-receptor tyrosine-protein kinase TYK2 (Homo sapiens, UniProt P29597); assay: Inhibition of TYK2 (unknown origin) assessed as reduction in IL-23 induced STAT3 phosphorylation by cell based ELISA
[11] = biological target: T1, Cyclin-dependent kinase 9; assay: Inhibition of CDK9 (unknown origin)
Mus musculus [12] = assay: Antiinflammatory activity in IMQ-induced BALB/c mouse psoriasis model assessed as reduction in ear thickness at 70 mg/kg, po bid for 5 days meausred on day 6; type: functional; design: scale not given: the % may be the effect or the level left
[13] = Ratio of unbound drug concentration in IL-23/IL-1beta induced C57BL/6J mouse plasma at 70 mg/kg, po to EC50 for JAK2 (unknown origin) assessed as inhibition of EPO-mediated STAT5 phosphorylation; type: organism-based; conditions: in vivo
[14] = Protein binding in human plasma; type: ADME, cell-free; conditions: read-out: PPB (converted)
Mus musculus [15] = assay: Antiinflammatory activity in IMQ-induced BALB/c mouse model assessed as reduction in serum IL-17F production at 70 mg/kg, po bid for 5 days; type: functional; design: scale not given: the % may be the effect or the level left
Mus musculus [16] = assay: Toxicity in IMQ-induced BALB/c mouse model assessed as reduction in platelet levels at 70 mg/kg, po bid for 5 days; type: organism-based; design: scale not given: the % may be the effect or the level left; conditions: in vivo, 120 h
[17] = biological target: T2, Tyrosine-protein kinase JAK3 (Homo sapiens, UniProt P52333); assay: Inhibition of JAK3 (unknown origin)
T2 sequence (P52333 whole entry): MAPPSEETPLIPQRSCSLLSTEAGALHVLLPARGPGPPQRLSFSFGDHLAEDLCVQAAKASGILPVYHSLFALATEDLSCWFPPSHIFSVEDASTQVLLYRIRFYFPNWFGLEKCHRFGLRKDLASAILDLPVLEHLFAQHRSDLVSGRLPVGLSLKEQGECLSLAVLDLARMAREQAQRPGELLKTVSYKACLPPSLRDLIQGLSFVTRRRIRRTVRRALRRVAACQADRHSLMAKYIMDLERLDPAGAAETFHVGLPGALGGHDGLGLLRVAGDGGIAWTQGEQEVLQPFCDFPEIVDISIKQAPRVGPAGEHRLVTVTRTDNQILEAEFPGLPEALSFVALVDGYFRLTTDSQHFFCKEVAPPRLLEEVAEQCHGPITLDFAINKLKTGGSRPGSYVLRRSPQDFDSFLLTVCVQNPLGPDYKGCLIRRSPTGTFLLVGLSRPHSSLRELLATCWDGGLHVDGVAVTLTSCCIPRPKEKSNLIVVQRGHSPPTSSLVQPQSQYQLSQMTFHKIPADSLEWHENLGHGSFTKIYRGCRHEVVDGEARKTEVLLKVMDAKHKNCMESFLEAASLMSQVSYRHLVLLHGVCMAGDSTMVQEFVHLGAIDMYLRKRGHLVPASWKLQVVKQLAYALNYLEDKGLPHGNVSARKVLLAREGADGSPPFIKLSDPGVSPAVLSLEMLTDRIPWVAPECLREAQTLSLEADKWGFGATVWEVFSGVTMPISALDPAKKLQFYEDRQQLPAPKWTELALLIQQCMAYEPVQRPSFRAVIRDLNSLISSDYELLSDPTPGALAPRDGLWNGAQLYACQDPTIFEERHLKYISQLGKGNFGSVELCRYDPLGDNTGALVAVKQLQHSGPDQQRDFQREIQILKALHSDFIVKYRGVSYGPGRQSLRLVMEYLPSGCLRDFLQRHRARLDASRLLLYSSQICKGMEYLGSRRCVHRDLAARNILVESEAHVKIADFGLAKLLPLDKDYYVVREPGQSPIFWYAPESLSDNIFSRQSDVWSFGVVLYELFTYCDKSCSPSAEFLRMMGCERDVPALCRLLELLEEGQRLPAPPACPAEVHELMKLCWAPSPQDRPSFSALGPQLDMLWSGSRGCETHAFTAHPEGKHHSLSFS

[18] = Ratio of unbound drug concentration in IL-23/IL-1beta induced C57BL/6J mouse plasma at 100 mg/kg, po to EC50 for TYK2 (unknown origin) assessed as inhibition of IL-23 induced STAT3 phosphorylation
[19] = Ratio of unbound drug concentration in IL-23/IL-1beta induced C57BL/6J mouse plasma at 30 mg/kg, po to EC50 for JAK2 (unknown origin) assessed as inhibition of EPO-mediated STAT5 phosphorylation; type: organism-based; conditions: in vivo
Mus musculus [20] = assay: Anti-inflammatory activity in IL-23/IL-1beta induced C57BL/6J mouse assessed as inhibition of IL-17F level in serum at 100 mg/kg, po pretreated for 30 mins followed by cytokine addition measured after 3 hrs by ELISA relative to control; type: functional
[21] = Efflux ratio of permeability from basolateral to apical over apical to basolateral side in MDCK cells; type: ADME, cell-based, Canis lupus familiaris; conditions: dog
[22] = Clearance in dog; type: ADME, Canis lupus familiaris; conditions: in vivo
[23] = Ratio of unbound drug concentration in IL-23/IL-1beta induced C57BL/6J mouse plasma at 100 mg/kg, po to EC50 for JAK2 (unknown origin) assessed as inhibition of EPO-mediated STAT5 phosphorylation; type: organism-based; conditions: in vivo

T1 sequence (P50750 whole entry): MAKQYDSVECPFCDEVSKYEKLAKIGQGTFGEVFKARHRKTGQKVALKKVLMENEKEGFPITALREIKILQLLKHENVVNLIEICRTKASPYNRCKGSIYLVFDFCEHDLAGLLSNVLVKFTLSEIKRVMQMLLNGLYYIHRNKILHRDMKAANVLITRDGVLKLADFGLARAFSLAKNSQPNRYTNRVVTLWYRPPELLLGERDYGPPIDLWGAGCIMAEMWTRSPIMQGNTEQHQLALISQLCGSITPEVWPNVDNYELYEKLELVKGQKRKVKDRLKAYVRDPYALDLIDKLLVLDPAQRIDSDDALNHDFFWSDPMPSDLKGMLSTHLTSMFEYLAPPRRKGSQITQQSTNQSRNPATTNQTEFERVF
Non-receptor tyrosine-protein kinase TYK2, sequence (P29597 whole entry): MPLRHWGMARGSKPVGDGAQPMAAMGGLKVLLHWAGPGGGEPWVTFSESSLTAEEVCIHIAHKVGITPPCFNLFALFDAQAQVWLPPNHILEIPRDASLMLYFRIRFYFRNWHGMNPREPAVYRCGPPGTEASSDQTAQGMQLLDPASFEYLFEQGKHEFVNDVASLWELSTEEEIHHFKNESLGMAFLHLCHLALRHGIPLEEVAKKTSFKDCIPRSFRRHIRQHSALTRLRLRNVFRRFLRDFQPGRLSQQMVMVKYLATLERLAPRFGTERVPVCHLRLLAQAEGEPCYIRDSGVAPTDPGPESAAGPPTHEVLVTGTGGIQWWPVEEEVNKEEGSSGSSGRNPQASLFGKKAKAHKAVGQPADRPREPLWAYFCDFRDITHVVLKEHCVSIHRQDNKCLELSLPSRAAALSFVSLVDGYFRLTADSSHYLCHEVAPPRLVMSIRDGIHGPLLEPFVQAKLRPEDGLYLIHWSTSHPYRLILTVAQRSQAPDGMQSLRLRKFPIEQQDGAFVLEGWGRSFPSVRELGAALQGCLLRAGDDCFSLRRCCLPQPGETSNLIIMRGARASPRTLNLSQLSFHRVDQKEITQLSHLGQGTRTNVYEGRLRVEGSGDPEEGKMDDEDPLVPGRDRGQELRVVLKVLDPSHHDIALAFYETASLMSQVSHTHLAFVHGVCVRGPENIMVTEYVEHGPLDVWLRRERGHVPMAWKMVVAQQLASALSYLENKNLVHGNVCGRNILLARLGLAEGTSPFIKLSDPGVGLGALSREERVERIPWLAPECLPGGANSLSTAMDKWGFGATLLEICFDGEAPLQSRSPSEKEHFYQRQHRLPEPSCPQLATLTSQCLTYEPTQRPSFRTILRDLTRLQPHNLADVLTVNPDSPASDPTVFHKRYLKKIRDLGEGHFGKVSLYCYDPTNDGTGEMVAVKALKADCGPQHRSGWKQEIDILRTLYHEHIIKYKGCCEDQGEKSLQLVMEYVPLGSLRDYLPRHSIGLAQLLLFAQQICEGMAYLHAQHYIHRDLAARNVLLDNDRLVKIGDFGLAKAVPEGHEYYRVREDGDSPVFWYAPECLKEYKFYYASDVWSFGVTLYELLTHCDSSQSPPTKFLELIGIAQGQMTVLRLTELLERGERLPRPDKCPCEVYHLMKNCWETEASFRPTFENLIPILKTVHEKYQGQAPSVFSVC
Tyrosine-protein kinase JAK2, sequence (O60674 whole entry): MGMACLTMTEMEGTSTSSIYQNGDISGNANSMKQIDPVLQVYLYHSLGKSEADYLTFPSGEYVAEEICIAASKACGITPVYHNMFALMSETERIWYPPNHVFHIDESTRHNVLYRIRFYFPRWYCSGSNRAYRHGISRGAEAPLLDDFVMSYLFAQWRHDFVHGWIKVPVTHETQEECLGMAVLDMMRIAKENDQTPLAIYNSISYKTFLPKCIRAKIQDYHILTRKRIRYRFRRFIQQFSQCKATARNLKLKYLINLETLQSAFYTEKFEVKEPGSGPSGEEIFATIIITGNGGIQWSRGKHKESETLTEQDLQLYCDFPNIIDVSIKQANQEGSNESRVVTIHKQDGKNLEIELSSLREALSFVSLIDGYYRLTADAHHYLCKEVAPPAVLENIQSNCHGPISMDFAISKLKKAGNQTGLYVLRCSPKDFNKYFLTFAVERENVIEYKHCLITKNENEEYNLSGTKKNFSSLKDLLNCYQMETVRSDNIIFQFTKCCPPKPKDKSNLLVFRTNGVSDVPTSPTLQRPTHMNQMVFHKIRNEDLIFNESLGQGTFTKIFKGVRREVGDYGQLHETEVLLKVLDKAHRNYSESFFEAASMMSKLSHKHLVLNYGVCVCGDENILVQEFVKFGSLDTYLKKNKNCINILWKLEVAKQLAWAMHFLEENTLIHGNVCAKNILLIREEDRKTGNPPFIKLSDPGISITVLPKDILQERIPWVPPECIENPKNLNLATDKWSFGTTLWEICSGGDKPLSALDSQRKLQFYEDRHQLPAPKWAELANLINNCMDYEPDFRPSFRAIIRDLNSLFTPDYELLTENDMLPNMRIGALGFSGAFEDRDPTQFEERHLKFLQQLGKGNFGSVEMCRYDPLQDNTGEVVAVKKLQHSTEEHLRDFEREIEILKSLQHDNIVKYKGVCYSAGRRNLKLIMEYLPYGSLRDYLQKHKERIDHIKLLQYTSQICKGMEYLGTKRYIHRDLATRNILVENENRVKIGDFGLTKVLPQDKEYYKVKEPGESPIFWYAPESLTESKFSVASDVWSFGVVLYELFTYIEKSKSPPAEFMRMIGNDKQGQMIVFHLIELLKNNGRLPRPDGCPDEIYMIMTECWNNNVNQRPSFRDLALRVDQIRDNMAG

inhibition [1]: > 50%
Cp(f) (Plasma [2]): 860 nM
Cp(f) (Plasma [3]): 1500 nM
Cp(f) (Plasma [5]): 2600 nM
EC50 [7]: 1400 nM
EC50 [10]: 66 nM
Ki [11]: 108 nM
Ratio [13]: 1.1
fraction unbound [14]: 0.028
Ki [17]: 58 nM
Ratio [19]: 0.61
efflux ratio [21]: 1.1
clearance [22]: 3.6 mL/min/kg
Ratio [23]: 1.9
SMILES: Cc1cc(Nc2nccc3nc(-c4c(Cl)cc(C#N)cc4Cl)[nH]c23)ncn1
Activity (Mus musculus [4]): 21%
Activity (Mus musculus [6]): 82%
Activity (Mus musculus [8]): 20%
Activity (Mus musculus [9]): 54%
Ratio EC50 (Homo sapiens): 21
Activity (Mus musculus [12]): 78%
Activity (Mus musculus [15]): 100%
Activity (Mus musculus [16]): 55%
Ratio [18]: 39
inhibition in vivo at 100 mg/kg (Mus musculus [20]): 87%
